Reference: patent US6410792B1, “Amide derivatives and methods for using the same as selective neuropeptide Y receptor antagonists” (Bayer Corporation, priority 1997, dated 2002)
Where two headings read alike, the source gives them in different places.

How the values were obtained:
Y2 receptor = molecular target: T1, Y2 receptor (Homo sapiens, UniProt P49146); test: Y2 receptor binding assay ([125I]PYY, membrane protein); conditions: read-out: hNPY2 IC50
T1 sequence (P49146 1-381): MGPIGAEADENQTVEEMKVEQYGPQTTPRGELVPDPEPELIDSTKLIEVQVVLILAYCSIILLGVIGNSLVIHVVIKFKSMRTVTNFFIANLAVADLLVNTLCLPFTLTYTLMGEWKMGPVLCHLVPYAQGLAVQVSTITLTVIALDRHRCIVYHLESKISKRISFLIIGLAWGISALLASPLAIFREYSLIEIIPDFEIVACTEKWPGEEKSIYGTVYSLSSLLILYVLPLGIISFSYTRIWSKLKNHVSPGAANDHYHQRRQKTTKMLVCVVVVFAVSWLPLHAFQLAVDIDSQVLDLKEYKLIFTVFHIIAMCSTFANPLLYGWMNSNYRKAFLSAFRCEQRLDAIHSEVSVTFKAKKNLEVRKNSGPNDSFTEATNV
Description: B. Human Y2 and Y4/PP1 Receptor Binding Assays
Binding assays were performed on GF/C Millipore 96-well plates pretreated with 0.02% polyethylenimine. The binding buffer for rat Y2 binding is Krebs-Ringer bicarbonate (pH 7.4) containing 0.01% BSA and 0.005% bacitracin. Samples consist of membrane protein, 25 pM [1251]PYY and drug dilution. Nonspecific binding is defined by 1 μM NPY. The binding buffer for human Y4/PP1 binding consists of 137 mM NaCl, 5.4 mM KCl, 0.44 mM KH2PO4, 1.26 mM CaCl2, 0.81 mM MgSO4, 20 mM HEPES, 1 mM dithiothreitol, 0.1% bacitracin, 100 mg/l streptomycin sulfate, 1 mg/l aprotinin, 10 mg/ml soybean trypsin inhibitor and 0.3% BSA, pH 7.4. Samples consist of membrane protein, 50 pM human [1251]human PP (hPP: NEN DuPont, Boston, Mass.) and drug dilution. 1 μM hPP is used to define nonspecific binding.
After a 2 hour incubation at room temperature with constant mixing, the samples are aspirated on a vacuum manifold, and rinsed with ice-cold binding buffer. The amount of radioactivity in each well is quantitated with either gamma counting or liquid scintillation.

Human NPY5 receptor = molecular target: T2, Human NPY5 receptor (Homo sapiens, UniProt Q15761); test: Human NPY5 receptor binding assay ([125I]PYY, membrane protein); conditions: [125I]PYY binding, read-out: hNPY5 IC50
T2 sequence (Q15761 1-445): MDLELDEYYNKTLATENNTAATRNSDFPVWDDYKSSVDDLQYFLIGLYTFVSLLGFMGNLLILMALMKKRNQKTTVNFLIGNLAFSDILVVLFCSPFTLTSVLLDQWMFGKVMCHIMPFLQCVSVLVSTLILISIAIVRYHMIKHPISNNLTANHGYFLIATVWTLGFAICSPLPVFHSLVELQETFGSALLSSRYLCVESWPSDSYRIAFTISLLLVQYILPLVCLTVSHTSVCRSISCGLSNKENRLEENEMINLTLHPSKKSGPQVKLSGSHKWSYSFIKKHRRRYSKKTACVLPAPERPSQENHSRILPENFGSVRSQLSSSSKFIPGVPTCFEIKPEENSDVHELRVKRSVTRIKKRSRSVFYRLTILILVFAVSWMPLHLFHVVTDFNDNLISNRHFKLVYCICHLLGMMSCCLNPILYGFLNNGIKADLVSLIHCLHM
Description: C. Human and Rat NPY5 Receptor Binding Assays
Binding assays are performed on GF/C Millipore 96well plates pretreated with 0.02% polyethylenimine. The binding buffer is 25 mM Tris, 120 mM NaCl, 5 mM KCl, 1.2 mM KH2PO4, 2.5 mM CaCl2, 1.2 mM MgSO4, 0.1% BSA and 0.5 mg/ml bacitracin, pH 7.4. Samples consist of membrane protein, 75-100 pM [125I]PYY (porcine, NEN-DuPont) and drug dilution. Nonspecific binding is defined by 1 μM PYY. After a 2 hour incubation at room temperature with constant mixing, the samples are aspirated on a vacuum manifold, and rinsed with ice-cold binding buffer. The amount of radioactivity in each well is quantitated with either gamma counting or liquid scintillation.

[1] = [125I]PYY binding, membrane protein

| Molecule | IC50 (Y2 receptor; [1]) [µM] | IC50 (Human NPY5 receptor) [µM] | IC50 (Y2 receptor) [µM] |
| --- | --- | --- | --- |
| CN(C)C1CCN(CC(=O)Nc2ccc(C(=O)c3ccccc3)cc2)CC1 [Compound 49, N-(4-Benzoyl-phenyl)-2-(4-dimethylamino-piperidin-1-yl)-acetamide] | > 5 | 8.8 | – |
| CN(C)C1(C(N)=O)CCN(CC(=O)Nc2ccc(C(=O)c3ccccc3)cc2)CC1 [Compound 64, 1-[(4-Benzoyl-phenylcarbamoyl)-methyl]-4-dimethylamino-piperidine-4-carboxylic acid amide] | > 5 | 4.8 | – |
| O=C(CN1CCC(N2CCCCC2)CC1)Nc1ccc(C(=O)c2ccccc2)cc1 [Compound 39, N-(4-Benzoyl-phenyl)-2-[1,4′]bipiperidinyl-1′-yl-acetamide] | > 5 | 2.1 | – |
| O=C(CN1CCC[C@H]1C(=O)OCc1ccccc1)Nc1ccc(C(=O)c2ccccc2)cc1 [Compound 106, (2S)-1-[(4-Benzoyl-phenylcarbamoyl)-methyl]-pyrrolidine-2-carboxylic acid benzyl ester] | > 5 | 3 | – |
| O=C(CN1CCCC1C(O)(c1ccccc1)c1ccccc1)Nc1ccc(C(=O)c2ccccc2)cc1 (stereo not drawn) [Compound 125, N-(4-Benzoyl-phenyl)-2-[2-(hydroxy-diphenyl-methyl)-pyrrolidin-1-yl]-acetamide] | > 5 | 0.43 | – |
| CN(C)C1CCN(CC(=O)Nc2ccc(C3CCCCC3)cc2)CC1 [Compound 32, N-(4-Cyclohexyl-phenyl)-2-(4-dimethylamino-piperidin-1-yl)-acetamide] | > 5 | 3 | – |
| CC(=O)C1(c2ccccc2)CCN(CC(=O)Nc2ccc(C(=O)c3ccccc3)cc2)CC1 [Compound 86, 2-(4-Acetyl-4-phenyl-piperidin-1-yl)-N-(4-benzoyl-phenyl)-acetamide] | > 5 | 0.001 | – |
| CCN(CC)CC(=O)Nc1ccc(C(=O)c2ccccc2)cc1 [Compound 7, N-(4-Benzoyl-phenyl)-2-diethylamino-acetamide] | > 5 | 1.6 | – |
| N#CC1(c2ccccc2)CCN(CC(=O)Nc2ccc(C(=O)c3ccccc3)cc2)CC1 [Compound 44, N-(4-Benzoyl-phenyl)-2-(4-cyano-4-phenyl-piperidin-1-yl)-acetamide] | – | 0.093 | > 5 |
| O=C(CN1CCC(CCCC2CCN(CCO)CC2)CC1)Nc1ccc(C(=O)c2ccccc2)cc1 [Compound 67, N-(4-Benzoyl-phenyl)-2-(4-{3-[1-(2-hydroxy-ethyl)-piperidin-4-yl]-propyl}-piperidin-1-yl)-acetamide] | > 5 | > 10 | – |
| O=C(CN1CCC(O)(c2cccc(C(F)(F)F)c2)CC1)Nc1ccc(C(=O)c2ccccc2)cc1 [Compound 63, N-(4-Benzoyl-phenyl)-2-[4-hydroxy-4-(3-trifluoromethyl-phenyl)-piperidin-1-yl]-acetamide] | > 5 | 0.57 | – |
| O=C(CN(CCO)c1ccccc1)Nc1ccc(C(=O)c2ccccc2)cc1 [Compound 17, N-(4-Benzoyl-phenyl)-2-[(2-hydroxy-ethyl)-phenyl-amino]-acetamide] | > 5 | 1.2 | – |
| 2-[4-(4-Bromo-phenyl)-4-hydroxy-piperidin-1-yl]-N-(4-cyclohexyl-phenyl)-acetamide [Compound 88] | > 5 | 0.12 | – |
| COC(=O)[C@@H]1CCCN1CC(=O)Nc1ccc(C2CCCCC2)cc1 [Compound 96, (2S)-1-[(4-Cyclohexyl-phenylcarbamoyl)-methyl]-pyrrolidine-2-carboxylic acid methyl ester] | > 5 | 1.2 | – |
| O=C(CN1CCC[C@H]1CN1CCCC1)Nc1ccc(C2CCCCC2)cc1 [Compound 79, N-(4-Cyclohexyl-phenyl)-2-(2S-pyrrolidin-1-ylmethyl-pyrrolidin-1-yl)-acetamide] | > 5 | 3.5 | – |
| O=C(CN1CCC(O)CC1)Nc1ccc(C(=O)c2ccccc2)cc1 [Compound 42, N-(4-Benzoyl-phenyl)-2-(4-hydroxy-piperidin-1-yl)-acetamide] | > 5 | 1.6 | – |
| Cc1ccc(C2(O)CCN(CC(=O)Nc3ccc(C(=O)c4ccccc4)cc3)CC2)cc1 [Compound 71, N-(4-Benzoyl-phenyl)-2-(4-hydroxy-4-p-tolyl-piperidin-1-yl)-acetamide] | > 5 | 0.22 | – |
| O=C(CN1CCC(Br)CC1)Nc1ccc(C2CCCCC2)cc1 [Compound 97, 2-(4-Bromo-piperidin-1-yl)-N-(4-Cyclohexyl-phenyl)-acetamide] | > 5 | 0.15 | – |
| NC1CCN(CC(=O)Nc2ccc(C(=O)c3ccccc3)cc2)C1 (stereo not drawn) [Compound 112, 2-(3-Amino-pyrrolidin-1-yl)-N-(4-benzoyl-phenyl)-acetamide] | > 5 | 3.9 | – |
| O=C(CN1CCC(C(=O)O)CC1)Nc1ccc(C(=O)c2ccccc2)cc1 [Compound 40, 1-[(4-Benzoyl-phenylcarbamoyl)-methyl]-piperidine-4-carboxylic acid] | > 5 | > 10 | – |
| O=C(CN1CCC(N2CCCC2)CC1)Nc1ccc(C2CCCCC2)cc1 [Compound 29] | > 5 | 4.4 | – |
| O=C(CN1CCC(C(=O)N2CCCCC2)(c2ccccc2)CC1)Nc1ccc(C(=O)c2ccccc2)cc1 [Compound 73, N-(4-Benzoyl-phenyl)-2-[4-phenyl-4-(piperidine-1-carbonyl)-piperidin-1-yl]-acetamide] | > 5 | > 5 | – |
| O=C(CN1CCC(CCCC2CCN(CCO)CC2)CC1)Nc1ccc(C2CCCCC2)cc1 [Compound 68, N-(4-Cyclohexyl-phenyl)-2-(4-{3-[1-(2-hydroxy-ethyl)-piperidin-4-yl]-propyl}-piperidin-1-yl)-acetamide] | > 5 | 9.7 | – |
| (2R,4R)-1-[(4-Benzoyl-phenylcarbamoyl)-methyl]-4-hydroxy-pyrrolidine-2-carboxylic acid [Compound 101] | > 5 | 6.1 | – |
| O=C(CN1CCC[C@H]1CN1CCCC1)Nc1ccc(C(=O)c2ccccc2)cc1 [Compound 78, N-(4-Benzoyl-phenyl)-2-(2S-pyrrolidin-1-ylmethyl-pyrrolidin-1-yl)-acetamide] | > 5 | > 5 | – |
| O=C(CN1CCC(O)C1)Nc1ccc(C2CCCCC2)cc1 (stereo not drawn) [Compound 92, N-(4-Cyclohexyl-phenyl)-2-(3-hydroxy-pyrrolidin-1-yl)-acetamide] | > 5 | 1.3 | – |
| O=C(CN1C[C@H](O)C[C@H]1C(=O)O)Nc1ccc(C2CCCCC2)cc1 [Compound 98, (2S,4R)-1-[(4-Cyclohexyl-phenylcarbamoyl)-methyl]-4-hydroxy-pyrrolidine-2-carboxylic acid] | > 5 | > 10 | – |
| O=C(CN1CCC2(CC1)C(=O)NCN2c1ccccc1)Nc1ccc(C(=O)c2ccccc2)cc1 [Compound 58, N-(4-Benzoyl-phenyl)-2-(4-oxo-1-phenyl-1,3,8-triaz-spiro[4.5]dec-8-yl)-acetamide] | > 5 | 2 | – |
| O=C(CN1CCC(Br)CC1)Nc1ccc(C(=O)c2ccccc2)cc1 [Compound 108, N-(4-Benzoyl-phenyl)-2-(4-bromo-piperidin-1-yl)-acetamide] | > 5 | 0.97 | – |
| O=C(CN1CC[C@@H](O)C1)Nc1ccc(C(=O)c2ccccc2)cc1 [Compound 81, N-(4-Benzoyl-phenyl)-2-(3R-hydroxy-pyrrolidin-1-yl)-acetamide] | > 5 | > 5 | – |
